# Laboratory results reported in patent publication US20160082016A1, “Use of Clonazepam in Combination with Antibiotic in the Treatment of Bacterially Induced Meningitis” (COMMISSARIAT A L'ENERGIE ATOMIQUE ET AUX ENERGIES …, priority 2013, published 2016).
# Key:
# [1] = system: Streptococcus Pneumoniae; assay: Survival of Swiss mice inoculated with Streptococcus Pneumoniae, treated with ceftriaxone plus adjuvant (bacterial meningitis model); type: in vivo
# Description: 200 μL of suspended 1 Mc Farland bacteria (Streptococcus Pneumoniae, CRBIP, Institut Pasteur) were seeded overnight on blood Columbia plates (BioRad). 24 h later, bacteria were suspended in 5 mL phosphate buffer solution (PBS), and diluted to obtain 1 Mc Farland 600 nm optical density (3,2.10^7 bacteria/mL for this strain).
# A mice model mimicking human bacterial meningitis (Gerber G., Acta Neuropathol. 2001) was implemented; Swiss male mice were used, with food and water ab libitum. Mice were anaesthetized using isoflurane.
# The Swiss mice model has been chosen for the following reasons: • It is possible to induce bacterial meningitis in a direct and reproducible way (Gerber G., Acta Neuropathol. 2001). • The induced meningitis is similar to human meningitis (Gerber G., Acta Neuropathol. 2001). In particular, the inoculated mice present several […] symptoms/responses as infected humans. The data obtained with this model can therefore be transposed to human. • Efficiency of antibiotic agents for treating bacterial meningitis is currently studied in mice (Shapiro M. A. et al, J. Antimicrob. Chemother. 2000).
# A 1/80 dilution of the prepared bacteria was then performed, so as to obtain 10^4 bacteria in 25 μL. 25 μL bacteria suspension were injected in the left brain hemisphere. 24 h, 48 h and 72 h later, mice were treated with 4 mg/day, 0.4 mg/day and 0.4 mg/day respectively of ceftriaxone. Clonazepam (or saline buffer, or water) was administrated 25 h post inoculation, by intraperitoneal (ip) or oral (po) route. Mortality was assessed several times per day, during 9 days.
# [2] = in vivo; cited from earlier work
# [3] = system: Streptococcus Pneumoniae; assay: Antibiogram: growth inhibition diameter around paper disks on Mueller-Hinton gelose; type: cell-based; conditions: 24 hours, FIG. 5
# Description: Antibiograms have been performed on the same Streptococcus Pneumoniae strain, on a Mueller-Hinton gelose plate of 90 mm diameter (Biorad) as follows 40 μL of the prepared bacteria were added to 5 mL PBS and the mix is spread on the gelose plate. The remaining liquid mix is thrown and the plate was incubated at 37° C. during 15 minutes. Antibiotic paper disks of 6mm diameter (Dominique Dutscher) were then overwhelmed with 25 μL of each molecule/combination and placed on the Mueller-Hinton gelose for 24 hours. The inhibition diameter of bacterial cell growth around the disks was then measured. • Ceftriaxone (3,2-1,6-0,8-0,4-0,2-0,1-0,05 μg/mL) • Clonazepam (10-1-0,1 μg/mL) • Ceftriaxone (0,8-0,2-0,05 μg/mL)+Clonazepam (0,1 μg/mL)
# [4] = system: pentylenetetrazol (PTZ) induced tonic seizures; assay: Anti-epileptic effect at low dose: time before pentylenetetrazol (PTZ) induced tonic seizure; type: in vivo, mice
SMILES,"Kaplan-Meier survival rate ([1]; clonazepam 1 μg/kg ip + ceftriaxone, compared with 4 μg/kg, p=0,045 Logrank, FIG. 2)","Kaplan-Meier survival rate ([1]; clonazepam 2 μg/kg ip + ceftriaxone, compared with 4 μg/kg, p=0,045 Logrank, FIG. 2)","Kaplan-Meier survival rate ([1]; clonazepam 4 μg/kg ip 25 h after inoculation + ceftriaxone 4, 0.4, 0.4 mg/day at 24, 48, 72 h, vs ceftriaxone + NaCl, p=0,04 Logrank, FIG. 1)","Kaplan-Meier survival rate, oral vs intraperitoneal ([1]; clonazepam 4 μg/kg orally + ceftriaxone, compared with intraperitoneally administered combination, FIGS. 1, 3, 6)","Kaplan-Meier survival rate ([1]; clonazepam 20 μg/kg ip + ceftriaxone, compared with 4 μg/kg, FIG. 1)","Kaplan-Meier survival rate ([1]; clonazepam 100 μg/kg ip + ceftriaxone, compared with 4 μg/kg, FIG. 1)","Amount giving satisfactory potentiating effects in mice ([1]; mice, clonazepam with antibiotic)",half-life [2] [h],"Growth inhibition diameter (potentiation of ceftriaxone in vitro) ([3]; ceftriaxone 0,8-0,2-0,05 μg/mL + clonazepam 0,1 μg/mL)","Growth inhibition diameter (intrinsic antibiotic activity) ([3]; clonazepam alone 10, 1, 0,1 μg/mL)","Anti-epileptic effect (time before tonic seizures) ([4]; Streptococcus Pneumoniae inoculated mice, clonazepam doses inferior to 5 μg/kg, FIG. 4)","Anti-epileptic effect at the efficient adjuvant dose ([4]; clonazepam 4 μg/kg, concluded from the 1-125 μg/kg experiments)","Amount at which clonazepam has an anti-epileptic effect ([4]; healthy (non inoculated) mice, ip pretreatment 60 min before PTZ, FIG. 4) [µg/kg]","Anti-epileptic effect (time before tonic seizures) ([4]; healthy mice, clonazepam 1 μg/kg ip, FIG. 4)","Anti-epileptic effect (time before tonic seizures) ([4]; healthy mice, clonazepam 5 μg/kg ip, FIG. 4)","Growth inhibition diameter ([3]; ceftriaxone alone 0,05-3,2 μg/mL)"
"O=C1CN=C(c2ccccc2Cl)c2cc([N+](=O)[O-])ccc2N1 [clonazepam, 5-(2-chlorphenyl)-1,3-dihydro-7-nitro-2H-1,4-benzodiazepine-2-one]",significantly less efficient,significantly less efficient,survival increase,lower,not as efficient,not as efficient,at least 2 μg/kg,18 to 50,Nor is it able to potentiate the antibiotic activity of ceftriaxone in vitro,no intrinsic antibiotic activity,no epileptic effect,no epileptic effect,≥ 25,no effect,no effect,
CO/N=C(\C(=O)N[C@@H]1C(=O)N2C(C(=O)O)=C(CSc3nc(=O)c(=O)[nH]n3C)CS[C@H]12)c1csc(N)n1 [ceftriaxone],,,,,,,,,,,,,,,,inhibit bacterial growth in a dose-dependent manner
